Test results as given in patent publication EP0319030A1, “Aminopropanol derivatives of 1,4:3,6-dianhydro-hexitol nitrates, processes for their preparation and their use as medicaments” (Heinrich Mack Nachf., priority 1987, dated 1989).
Marks after values point to notes of the source that are not given here.

Legend:
Type in all cases: in vivo
[1] = test system: Mice; assay: Peroral tolerance in mice; details: mouse, in vivo
Excerpt: Set forth below is data obtained on the compounds of Examples 17, 19 and 20 that illustrates the pharmacological action of the compounds of the present invention.

[2] = test system: anesthetized rat; assay: Lypressin-induced T-wave increase in the ECG (lypressin coronary spasm), method of M. Leitold et al.
Excerpt: (§1) In particular, they have a pronounced cardiovascular action. On isolated strips of veins from dogs, they act against the K⁺-induced contraction in a lower concentration than on aorta strips. On isolated hearts from guinea pigs, they increase coronary flow as a function of the dose. On anesthetized rats, they prevent lypressin coronary spasm as a function of the dose and significiantly increase the survival rate of rats following acute cardiac infarction. On normotensive conscious dogs, they lower the systolic blood pressure for a period of 6-8 hours after oral administration. On artifically respirated anesthetized, thoraxotomized dogs, they reduce the mean arterial pressure, the left ventricular systolic pressure, the left ventricular end diastolic pressure and the pressure in the Arteria pulmonalis and reduce the peripheral vascular resistance. In contrast to the known organic nitrate esters, they also lead to a long-lasting reduction in the systolic blood pressure of spontaneously hypertensive rats. Such an action profile is not known for any of the substances of similar structure which have already been described.

[3] = test system: rats; assay: Survival rate after acute coronary ligature, method of I. Lepran et al.; details: 100.0 mg/kg orally 5 minutes before ligature
Excerpt: as §1

[4] = test system: anesthetized dogs; assay: Cardiovascular actions following intra-venous administration, opened thorax and artificial respiration; details: opened thorax, artificial respiration
Excerpt: as §1

[5] = test system: conscious beagle dogs; assay: Systolic blood pressure and heart rate following peroral administration; details: 5.0 mg/kg peroral, mean ± SEM
Excerpt: as §1

Structure (SMILES): COc1ccccc1N1CCN(CC(O)CO[C@H]2CO[C@H]3[C@@H]2OC[C@@H]3O[N+](=O)[O-])CC1 (some centres unmarked) [Example 20, 5-O-<3-[4-(2-Methoxyphenyl)-piprazinyl]-2-hydroxypropyl>-isoidide-2-nitrate]
- tolerance (clinical symptoms, fatal consequences) [1]: without clinical symptoms and without fatal consequences
- ED50 ([2]; Rattus norvegicus, po, 0.5 h, perorally 30 minutes before the lypressin injection, dose column in mg/kg): 73.8 mg/kg
- Duration of action at the ED50 dose ([2]; perorally at various times before the lypressin injection): 4 h
- Number of rats surviving after an acute coronary ligature, 24 hours ([3]; control 21/80): 14/20*
- Number of rats surviving after an acute coronary ligature, 7 days ([3]; control 21/80): 14/20*
- Number of rats surviving after an acute coronary ligature, 60 minutes ([3]; control 23/80): 14/20*
- CO, Action of substance ([4]; 30 µg/kg intra-venous): 0.81 ± 0.3 l/M
- CO, Change ([4]; 30 µg/kg intra-venous): 0.38 ± 0.1 l/M
- CO, Duration of action ([4]; 30 µg/kg intra-venous): 12 ± 6 min
- HR (heart rate), Action of substance ([4]; 30 µg/kg intra-venous): 192 ± 10 Bts/M
- HR (heart rate), Change ([4]; 30 µg/kg intra-venous): 2 ± 2 Bts/M
- HR (heart rate), Duration of action ([4]; 30 µg/kg intra-venous): 11 ± 4 min
- LVEDP (left ventricular enddiastolic pressure), Action of substance ([4]; 30 µg/kg intra-venous): 7.5 ± 1.2 mmHg
- LVEDP (left ventricular enddiastolic pressure), Change ([4]; 30 µg/kg intra-venous): 0.1 ± 0.2 mmHg
- LVEDP (left ventricular enddiastolic pressure), Duration of action ([4]; 30 µg/kg intra-venous): 9 ± 7 min
- LVSP (left ventricular systolic blood pressure), Action of substance ([4]; 30 µg/kg intra-venous): 116 ± 10 mmHg
- LVSP (left ventricular systolic blood pressure), Change ([4]; 30 µg/kg intra-venous): 22 ± 4 mmHg
- LVSP (left ventricular systolic blood pressure), Duration of action ([4]; 30 µg/kg intra-venous): 8 ± 3 min
- MAP (mean arterial blood pressure), Action of substance ([4]; 30 µg/kg intra-venous): 66 ± 3 mmHg
- MAP (mean arterial blood pressure), Change ([4]; 30 µg/kg intra-venous): 25 ± 5 mmHg
- MAP (mean arterial blood pressure), Duration of action ([4]; 30 µg/kg intra-venous): 15 ± 2 min
- PAP, Action of substance ([4]; 30 µg/kg intra-venous): 16.0 ± 1 mmHg
- PAP, Change ([4]; 30 µg/kg intra-venous): 0.4 ± 0.2 mmHg
- PAP, Duration of action ([4]; 30 µg/kg intra-venous): 11 ± 6 min
- SV, Action of substance ([4]; 30 µg/kg intra-venous): 7.5 ± 2 mL/s
- SV, Change ([4]; 30 µg/kg intra-venous): 2.3 ± 1 mL/s
- SV, Duration of action ([4]; 30 µg/kg intra-venous): 12 ± 6 min
- TPR (total peripheral vascular resistance), Action of substance ([4]; 30 µg/kg intra-venous): 63 ± 13 mmHg/ml
- TPR (total peripheral vascular resistance), Change ([4]; 30 µg/kg intra-venous): 2 ± 13 mmHg/ml
- TPR (total peripheral vascular resistance), Duration of action ([4]; 30 µg/kg intra-venous): 4 ± 2 min
- dp/dtmax (maximum rate of increase in the left ventricular pressure), Action of substance ([4]; 30 µg/kg intra-venous): 2321 ± 363 mmHg/s
- dp/dtmax (maximum rate of increase in the left ventricular pressure), Change ([4]; 30 µg/kg intra-venous): 758 ± 269 mmHg/s
- dp/dtmax (maximum rate of increase in the left ventricular pressure), Duration of action ([4]; 30 µg/kg intra-venous): 15 ± 4 min
- CO, Action of substance ([4]; 300 µg/kg intra-venous): 1.32 ± 0.7 l/M
- CO, Change ([4]; 300 µg/kg intra-venous): 0.21 ± 0.6 l/M
- CO, Duration of action ([4]; 300 µg/kg intra-venous): 35 ± 23 min
- HR (heart rate), Action of substance ([4]; 300 µg/kg intra-venous): 197 ± 12 Bts/M
- LVEDP (left ventricular enddiastolic pressure), Action of substance ([4]; 300 µg/kg intra-venous): 6.8 ± 1 mmHg
- LVEDP (left ventricular enddiastolic pressure), Change ([4]; 300 µg/kg intra-venous): 1.1 ± 1 mmHg
- LVEDP (left ventricular enddiastolic pressure), Duration of action ([4]; 300 µg/kg intra-venous): 18 ± 13 min
- LVSP (left ventricular systolic blood pressure), Action of substance ([4]; 300 µg/kg intra-venous): 111 ± 11 mmHg
- LVSP (left ventricular systolic blood pressure), Change ([4]; 300 µg/kg intra-venous): 34 ± 5 mmHg
- LVSP (left ventricular systolic blood pressure), Duration of action ([4]; 300 µg/kg intra-venous): 34 ± 12 min
- MAP (mean arterial blood pressure), Action of substance ([4]; 300 µg/kg intra-venous): 58 ± 2 mmHg
- MAP (mean arterial blood pressure), Change ([4]; 300 µg/kg intra-venous): 39 ± 3 mmHg
- MAP (mean arterial blood pressure), Duration of action ([4]; 300 µg/kg intra-venous): 35 ± 15 min
- PAP, Action of substance ([4]; 300 µg/kg intra-venous): 15.7 ± 1 mmHg
- PAP, Change ([4]; 300 µg/kg intra-venous): 0.7 ± 0.3 mmHg
- PAP, Duration of action ([4]; 300 µg/kg intra-venous): 14 ± 13 min
- SV, Action of substance ([4]; 300 µg/kg intra-venous): 7.2 ± 2.5 mL/s
- SV, Change ([4]; 300 µg/kg intra-venous): 0.5 ± 2.9 mL/s
- SV, Duration of action ([4]; 300 µg/kg intra-venous): 33 ± 23 min
- TPR (total peripheral vascular resistance), Action of substance ([4]; 300 µg/kg intra-venous): 35 ± 6 mmHg/ml
- TPR (total peripheral vascular resistance), Change ([4]; 300 µg/kg intra-venous): 39 ± 9 mmHg/ml
- TPR (total peripheral vascular resistance), Duration of action ([4]; 300 µg/kg intra-venous): 6 ± 2 min
- dp/dtmax (maximum rate of increase in the left ventricular pressure), Action of substance ([4]; 300 µg/kg intra-venous): 2056 ± 385 mmHg/s
- dp/dtmax (maximum rate of increase in the left ventricular pressure), Change ([4]; 300 µg/kg intra-venous): 1053 ± 333 mmHg/s
- dp/dtmax (maximum rate of increase in the left ventricular pressure), Duration of action ([4]; 300 µg/kg intra-venous): 36 ± 11 min
- CO, Action of substance ([4]; 3000 µg/kg intra-venous): 2.02 ± 0.8 l/M
- CO, Change ([4]; 3000 µg/kg intra-venous): 0.87 ± 0.7 l/M
- CO, Duration of action ([4]; 3000 µg/kg intra-venous): 3 ± 0.4 min
- HR (heart rate), Action of substance ([4]; 3000 µg/kg intra-venous): 169 ± 34 Bts/M
- HR (heart rate), Change ([4]; 3000 µg/kg intra-venous): 30 ± 15 Bts/M
- HR (heart rate), Duration of action ([4]; 3000 µg/kg intra-venous): 80 ± 44 min
- LVEDP (left ventricular enddiastolic pressure), Action of substance ([4]; 3000 µg/kg intra-venous): 2.7 ± 3.8 mmHg
- LVEDP (left ventricular enddiastolic pressure), Change ([4]; 3000 µg/kg intra-venous): 2.3 ± 1.7 mmHg
- LVEDP (left ventricular enddiastolic pressure), Duration of action ([4]; 3000 µg/kg intra-venous): 104 ± 51 min
- LVSP (left ventricular systolic blood pressure), Action of substance ([4]; 3000 µg/kg intra-venous): 98 ± 21 mmHg
- LVSP (left ventricular systolic blood pressure), Change ([4]; 3000 µg/kg intra-venous): 55 ± 15 mmHg
- LVSP (left ventricular systolic blood pressure), Duration of action ([4]; 3000 µg/kg intra-venous): 128 ± 12 min
- MAP (mean arterial blood pressure), Action of substance ([4]; 3000 µg/kg intra-venous): 56 ± 2 mmHg
- MAP (mean arterial blood pressure), Change ([4]; 3000 µg/kg intra-venous): 45 ± 5 mmHg
- MAP (mean arterial blood pressure), Duration of action ([4]; 3000 µg/kg intra-venous): 118 ± 20 min
- PAP, Action of substance ([4]; 3000 µg/kg intra-venous): 14.6 ± 1 mmHg
- PAP, Change ([4]; 3000 µg/kg intra-venous): 1.1 ± 0.3 mmHg
- PAP, Duration of action ([4]; 3000 µg/kg intra-venous): > 177 min
- SV, Action of substance ([4]; 3000 µg/kg intra-venous): 10.6 ± 3.3 mL/s
- SV, Change ([4]; 3000 µg/kg intra-venous): 50 ± 0.7 mL/s
- SV, Duration of action ([4]; 3000 µg/kg intra-venous): 4 ± 0.0 min
- TPR (total peripheral vascular resistance), Action of substance ([4]; 3000 µg/kg intra-venous): 24 ± 7 mmHg/ml
- TPR (total peripheral vascular resistance), Change ([4]; 3000 µg/kg intra-venous): 56 ± 7 mmHg/ml
- TPR (total peripheral vascular resistance), Duration of action ([4]; 3000 µg/kg intra-venous): 27 ± 21 min
- dp/dtmax (maximum rate of increase in the left ventricular pressure), Action of substance ([4]; 3000 µg/kg intra-venous): 1977 ± 537 mmHg/s
- dp/dtmax (maximum rate of increase in the left ventricular pressure), Change ([4]; 3000 µg/kg intra-venous): 1395 ± 263 mmHg/s
- dp/dtmax (maximum rate of increase in the left ventricular pressure), Duration of action ([4]; 3000 µg/kg intra-venous): > 148 min
- HR (heart rate), Action of substance after 1 hours [5]: 98 ± 7 Bts/M
- HR (heart rate), Action of substance after 2 hours [5]: 109 ± 10 Bts/M
- HR (heart rate), Action of substance after 4 hours [5]: 82 ± 7 Bts/M
- HR (heart rate), Action of substance after 6 hours [5]: 78 ± 6 Bts/M
- HR (heart rate), Action of substance after 8 hours [5]: 77 ± 6 Bts/M
- SBP (systolic blood pressure), Action of substance after 1 hours [5]: 97 ± 8 mmHg
- SBP (systolic blood pressure), Action of substance after 2 hours [5]: 95 ± 6 mmHg
- SBP (systolic blood pressure), Action of substance after 4 hours [5]: 106 ± 4 mmHg
- SBP (systolic blood pressure), Action of substance after 6 hours [5]: 113 ± 4 mmHg
- SBP (systolic blood pressure), Action of substance after 8 hours [5]: 121 ± 3 mmHg
